Key:
CD8+ OT-1 T cells = test: DC-EV in vitro assays (H-2Kb-SIINFEKL on EVs, binding to CD8+ T cells, OT-1 proliferation, IFN-γ ELISA); format: cell-based, mouse; conditions: EVs of OVA-loaded BMDCs treated with VitE vs vehicle
Procedure: To generate DC-EVs, BMDCs or DC2.4 were cultured at a density of 2×10^6 cells/ml and treated with LPS (100 ng/ml) for 18 h and then treated with OVA protein (250 μg/ml) for 24 hours in DCs culture media supplemented with 10% exosome depleted FBS, which is prepared by the first ultracentrifugation at 100,000 g for 16 h, and then filtering using a 100 nm filter. Supernatants were collected from 48-72 h DCs cultures and EVs were purified by a standard differential ultracentrifugation. […] The purified exosomes were then analyzed and used for experimental procedures. […]
For FACS analysis, exosomes were conjugated with 4 μm aldehyde/sulfate latex beads (Cat. A37304, Thermo Fisher) by overnight incubation. The EVs-bound beads were incubated with glycine to block remaining binding sites and surface expression of SIINFEKL-loaded MHC-I complexes on DC-EVs was determined by staining with anti-mouse H-2K^b bound to SIINFEKL antibody. […]
To verify the physical interactions between DC-EVs and CD8^+ T cells, purified DC-EVs were stained with DiO (Cat. V22889, Thermo Fisher) in 100 μl PBS, and then washed with 10 ml PBS and pelleted by ultracentrifugation. For cell treatment, DC-EVs (10 μg/ml) (unless specified otherwise) were used on the basis of protein concentration determined by a BCA Protein Assay Kit (Pierce). […] After 72 h, the T-cell proliferation was analyzed by FACS. […]

human iPSC-DCs = test: Activation of human iPSC-derived DCs by flow cytometry; format: cell-based; conditions: vitamin E 50 μg/ml or TPI-1 1 μg/ml, 72 h, gated on CD11c+
Source text: FIG. 10A: Representative high magnification photomicrographs (100×, 200×, 400×) illustrating the morphology of colonies and individual cells of fully differentiated iPSC-derived DCs (iPSC-DCs) displaying characteristic DC morphology consisting of protrusions and veils of cytoplasm at the end of the differentiation procedure (day 23) after using the differentiation protocol for the addition and withdrawal of growth factors and cytokines. FIG. 10B: Phenotypic characterization of generated human iPSC-DCs. Representative flow cytometry analysis depicting the expression of DC lineage markers by iPSC-DCs gated on the CD11c+ population. Levels of expression of individual markers are shown as red histograms, while non-specific staining by isotype controls is shown as light blue histograms. FIG. 10C: Phenotypic characterization of human iPSC-DCs after treatment with vitamin E or TPI-1 to inhibit SHP1. Representative flow cytometry analysis (left panel) and quantification (right panel) depicting the expression of indicated activity markers by iPSC-DCs gated on the CD11c+population with the treatment of vehicle, vitamin E (50 μg/ml) or TPI-1 (1 μg/ml) for 72 h.
We explored the feasibility of differentiating populations of primary DCs from iPSCs and characterized the phenotype of iPSC-DC with the pharmacological inhibition of SHP1 by vitamin E or TPI-1. […]

RAB34 = test: Immunoblot of Rab34 proteins in BMDCs; format: cell-based, mouse; conditions: VitE vs vehicle, 48 hr

In the case of Cc1c(C)c2c(c(C)c1O)CC[C@@](C)(CCC[C@H](C)CCC[C@H](C)CCCC(C)C)O2 [VitE, D-α-Tocopherol], the “level of H-2Kb-SIINFEKL complexes on DC-EVs” value (CD8+ OT-1 T cells) is reported as “increased the level of H-2Kb-SIINFEKL complexes on DC-EVs”, the “expression of DC activation markers on iPSC-DCs” value (human iPSC-DCs) is reported as “increased expression of DC activation markers CD40 and CD86” and the “RAB34 expression in BMDCs” value (RAB34) is reported as “increased total RAB34 expression”.

From US20240424019A1, “SHP1 MODIFIED DENDRITIC CELLS AND EXTRACELLULAR VESICLES DERIVED THEREFROM AND ASSOCIATED METHODS” (BOARD OF REGENTS, THE UNIVERSITY OF TEXAS SYSTEM, priority 2021, published 2024)
